Melting point data for 1 compound are collected here from patent publication US7767625B2 (dated 2010).

On to `C=Cc1c(NC(=O)c2cn(C)nc2C(F)(F)F)cccc1C(C)(C)C`, for which the melting point fell in the range of 118 to 119 °C.

A word on the melting point: it is the temperature, or range, at which the solid turns liquid.
